# Experiments:
# [1] = tested on: Caco-2 cell line; experiment: Cytotoxicity MTS assay, Caco-2 cell line; assay type: cell-based; conditions: for OD490 Mean / OD490 Well 1 / OD490 Well 2 / OD490 Well 3: Caco-2 cell line
# Procedure, shortened: (§1)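 Growth inhibition is measured by MTS conversion, read as absorbance at 490 nm after 2 h at 37 °C. Compounds act on cells seeded at 1000/well for 24 h across 0.5–100 µM final. Data derive from three independent duplicate experiments.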
# [2] = tested on: Hela cell line; experiment: Cytotoxicity MTS assay, Hela cell line; assay type: cell-based; conditions: for OD490 value, Mean / OD490 value, Well 1 / OD490 value, Well 2 / OD490 value, Well 3: Hela cell line, MTS;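 for OD490 value, Mean: blank control wells received 0.025% DMSO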;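 for OD490 value, Well 1: blank control wells received 0.025% DMSO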;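 for OD490 value, Well 2: blank control wells received 0.025% DMSO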;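 for OD490 value, Well 3: blank control wells received 0.025% DMSO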
# Procedure, shortened: as §1
structure (smiles),measurement,setting,value
CCOC(=O)c1[nH]c(C2NC(=S)NC(C)=C2C(=O)OC)c(C(=O)OCC)c1C (centres unmarked) [D12],OD490 Mean,"[1]; 0.5μM, first assay",0.5030
same,OD490 Well 1,"[1]; 0.5μM, first assay",0.4995
same,OD490 Well 2,"[1]; 0.5μM, first assay",0.5121
same,OD490 Well 3,"[1]; 0.5μM, first assay",0.4973
same,OD490 Mean,"[1]; 0.5μM, second assay",0.6834
same,OD490 Well 1,"[1]; 0.5μM, second assay",0.5732
same,OD490 Well 2,"[1]; 0.5μM, second assay",0.7838
same,OD490 Well 3,"[1]; 0.5μM, second assay",0.6933
same,OD490 Mean,"[1]; 0.5μM, third assay",0.6157
same,OD490 Well 1,"[1]; 0.5μM, third assay",0.6017
same,OD490 Well 2,"[1]; 0.5μM, third assay",0.6354
same,OD490 Well 3,"[1]; 0.5μM, third assay",0.6100
same,OD490 Mean,"[1]; 1μM, first assay",0.4963
same,OD490 Well 1,"[1]; 1μM, first assay",0.4703
same,OD490 Well 2,"[1]; 1μM, first assay",0.5352
same,OD490 Well 3,"[1]; 1μM, first assay",0.4835
same,OD490 Mean,"[1]; 1μM, second assay",0.6457
same,OD490 Well 1,"[1]; 1μM, second assay",0.5559
same,OD490 Well 2,"[1]; 1μM, second assay",0.7221
same,OD490 Well 3,"[1]; 1μM, second assay",0.6591
same,OD490 Mean,"[1]; 1μM, third assay",0.6229
same,OD490 Well 1,"[1]; 1μM, third assay",0.6178
same,OD490 Well 2,"[1]; 1μM, third assay",0.6489
same,OD490 Well 3,"[1]; 1μM, third assay",0.6021
same,OD490 Mean,"[1]; 10μM, first assay",0.5326
same,OD490 Well 1,"[1]; 10μM, first assay",0.5238
same,OD490 Well 2,"[1]; 10μM, first assay",0.5488
same,OD490 Well 3,"[1]; 10μM, first assay",0.5251
same,OD490 Mean,"[1]; 10μM, second assay",0.6099
same,OD490 Well 1,"[1]; 10μM, second assay",0.585
same,OD490 Well 2,"[1]; 10μM, second assay",0.6539
same,OD490 Well 3,"[1]; 10μM, second assay",0.5909
same,OD490 Mean,"[1]; 10μM, third assay",0.6194
same,OD490 Well 1,"[1]; 10μM, third assay",0.6123
same,OD490 Well 2,"[1]; 10μM, third assay",0.6244
same,OD490 Well 3,"[1]; 10μM, third assay",0.6214
same,OD490 Mean,"[1]; 25μM, first assay",0.5279
same,OD490 Well 1,"[1]; 25μM, first assay",0.5868
same,OD490 Well 2,"[1]; 25μM, first assay",0.5324
same,OD490 Well 3,"[1]; 25μM, first assay",0.4646
same,OD490 Mean,"[1]; 25μM, second assay",0.5376
same,OD490 Well 1,"[1]; 25μM, second assay",0.5247
same,OD490 Well 2,"[1]; 25μM, second assay",0.5145
same,OD490 Well 3,"[1]; 25μM, second assay",0.5736
same,OD490 Mean,"[1]; 25μM, third assay",0.5839
same,OD490 Well 1,"[1]; 25μM, third assay",0.5863
same,OD490 Well 2,"[1]; 25μM, third assay",0.5944
same,OD490 Well 3,"[1]; 25μM, third assay",0.5711
same,OD490 Mean,"[1]; 50μM, first assay",0.5705
same,OD490 Well 1,"[1]; 50μM, first assay",0.5776
same,OD490 Well 2,"[1]; 50μM, first assay",0.5840
same,OD490 Well 3,"[1]; 50μM, first assay",0.5499
same,OD490 Mean,"[1]; 50μM, second assay",0.6141
same,OD490 Well 1,"[1]; 50μM, second assay",0.6452
same,OD490 Well 2,"[1]; 50μM, second assay",0.6668
same,OD490 Well 3,"[1]; 50μM, second assay",0.5302
same,OD490 Mean,"[1]; 50μM, third assay",0.5882
same,OD490 Well 1,"[1]; 50μM, third assay",0.5933
same,OD490 Well 2,"[1]; 50μM, third assay",0.5725
same,OD490 Well 3,"[1]; 50μM, third assay",0.5988
same,OD490 Mean,"[1]; 100μM, first assay",0.4236
same,OD490 Well 1,"[1]; 100μM, first assay",0.4210
same,OD490 Well 2,"[1]; 100μM, first assay",0.4345
same,OD490 Well 3,"[1]; 100μM, first assay",0.4153
same,OD490 Mean,"[1]; 100μM, second assay",0.5967
same,OD490 Well 1,"[1]; 100μM, second assay",0.5668
same,OD490 Well 2,"[1]; 100μM, second assay",0.6735
same,OD490 Well 3,"[1]; 100μM, second assay",0.5498
same,OD490 Mean,"[1]; 100μM, third assay",0.4730
same,OD490 Well 1,"[1]; 100μM, third assay",0.4925
same,OD490 Well 2,"[1]; 100μM, third assay",0.4687
same,OD490 Well 3,"[1]; 100μM, third assay",0.4578
same,IC50,"[1]; MTS assay, 24 h exposure",148 µM
same,"OD490 value, Mean","[2]; 0.5μM, first assay",2.4447
same,"OD490 value, Well 1","[2]; 0.5μM, first assay",2.5235
same,"OD490 value, Well 2","[2]; 0.5μM, first assay",2.4821
same,"OD490 value, Well 3","[2]; 0.5μM, first assay",2.3285
same,"OD490 value, Mean","[2]; 0.5μM, second assay",2.5426
same,"OD490 value, Well 1","[2]; 0.5μM, second assay",2.5366
same,"OD490 value, Well 2","[2]; 0.5μM, second assay",2.2547
same,"OD490 value, Well 3","[2]; 0.5μM, second assay",2.8365
same,"OD490 value, Mean","[2]; 0.5μM, third assay",2.6167
same,"OD490 value, Well 1","[2]; 0.5μM, third assay",2.6535
same,"OD490 value, Well 2","[2]; 0.5μM, third assay",2.5478
same,"OD490 value, Well 3","[2]; 0.5μM, third assay",2.6489
same,"OD490 value, Mean","[2]; 1μM, first assay",2.3871
same,"OD490 value, Well 1","[2]; 1μM, first assay",2.4815
same,"OD490 value, Well 2","[2]; 1μM, first assay",2.2707
same,"OD490 value, Well 3","[2]; 1μM, first assay",2.4090
same,"OD490 value, Mean","[2]; 1μM, second assay",2.5625
same,"OD490 value, Well 1","[2]; 1μM, second assay",2.5302
same,"OD490 value, Well 2","[2]; 1μM, second assay",2.5698
same,"OD490 value, Well 3","[2]; 1μM, second assay",2.5874
same,"OD490 value, Mean","[2]; 1μM, third assay",2.6475
same,"OD490 value, Well 1","[2]; 1μM, third assay",2.5896
same,"OD490 value, Well 2","[2]; 1μM, third assay",2.6985
same,"OD490 value, Well 3","[2]; 1μM, third assay",2.6543
same,"OD490 value, Mean","[2]; 10μM, first assay",2.6552
same,"OD490 value, Well 1","[2]; 10μM, first assay",2.5708
same,"OD490 value, Well 2","[2]; 10μM, first assay",2.6029
same,"OD490 value, Well 3","[2]; 10μM, first assay",2.7920
same,"OD490 value, Mean","[2]; 10μM, second assay",2.5779
same,"OD490 value, Well 1","[2]; 10μM, second assay",2.5898
same,"OD490 value, Well 2","[2]; 10μM, second assay",2.5741
same,"OD490 value, Well 3","[2]; 10μM, second assay",2.5698
same,"OD490 value, Mean","[2]; 10μM, third assay",2.6011
same,"OD490 value, Well 1","[2]; 10μM, third assay",2.5898
same,"OD490 value, Well 2","[2]; 10μM, third assay",2.6635
same,"OD490 value, Well 3","[2]; 10μM, third assay",2.5501
same,"OD490 value, Mean","[2]; 25μM, first assay",2.2305
same,"OD490 value, Well 1","[2]; 25μM, first assay",2.2367
same,"OD490 value, Well 2","[2]; 25μM, first assay",2.1978
same,"OD490 value, Well 3","[2]; 25μM, first assay",2.2571
same,"OD490 value, Mean","[2]; 25μM, second assay",2.5197
same,"OD490 value, Well 1","[2]; 25μM, second assay",2.5698
same,"OD490 value, Well 2","[2]; 25μM, second assay",2.5525
same,"OD490 value, Well 3","[2]; 25μM, second assay",2.4369
same,"OD490 value, Mean","[2]; 25μM, third assay",2.6373
same,"OD490 value, Well 1","[2]; 25μM, third assay",2.6859
same,"OD490 value, Well 2","[2]; 25μM, third assay",2.5363
same,"OD490 value, Well 3","[2]; 25μM, third assay",2.6896
same,"OD490 value, Mean","[2]; 50μM, first assay",2.5183
same,"OD490 value, Well 1","[2]; 50μM, first assay",2.3673
same,"OD490 value, Well 2","[2]; 50μM, first assay",2.6584
same,"OD490 value, Well 3","[2]; 50μM, first assay",2.5291
same,"OD490 value, Mean","[2]; 50μM, second assay",2.5474
same,"OD490 value, Well 1","[2]; 50μM, second assay",2.4652
same,"OD490 value, Well 2","[2]; 50μM, second assay",2.5569
same,"OD490 value, Well 3","[2]; 50μM, second assay",2.6201
same,"OD490 value, Mean","[2]; 50μM, third assay",2.5184
same,"OD490 value, Well 1","[2]; 50μM, third assay",2.4365
same,"OD490 value, Well 2","[2]; 50μM, third assay",2.5532
same,"OD490 value, Well 3","[2]; 50μM, third assay",2.5654
same,"OD490 value, Mean","[2]; 100μM, first assay",2.3367
same,"OD490 value, Well 1","[2]; 100μM, first assay",2.4110
same,"OD490 value, Well 2","[2]; 100μM, first assay",2.1799
same,"OD490 value, Well 3","[2]; 100μM, first assay",2.4192
same,"OD490 value, Mean","[2]; 100μM, second assay",2.4086
same,"OD490 value, Well 1","[2]; 100μM, second assay",2.3674
same,"OD490 value, Well 2","[2]; 100μM, second assay",2.4214
same,"OD490 value, Well 3","[2]; 100μM, second assay",2.4369
same,"OD490 value, Mean","[2]; 100μM, third assay",2.3047
same,"OD490 value, Well 1","[2]; 100μM, third assay",2.1753
same,"OD490 value, Well 2","[2]; 100μM, third assay",2.3324
same,"OD490 value, Well 3","[2]; 100μM, third assay",2.4065
same,IC50,"[2]; MTS assay, 24 h exposure",> 150 µM

# From publication PMC8037182, “Solvothermal Synthesis of Multiple Dihydropyrimidinones at a Time as Inhibitors of Eg5” (Molecules, 2021)
